Assay results as given in US20230056497A1, “CD206 Modulators Their Use and Methods for Preparation” (The United States of America, As Represented by the …, priority 2019, published 2023).
pIC50: −log10 of the molar value. Read-outs that look alike come from different tables or passages of the source.

Columns and labels:
M2 macrophages [1] = assay: Cancer cell phagocytosis by M1 and M2 macrophages, relative quantitative fluorescence; assay type: cell-based; conditions: M2 versus M1 macrophages
Source text: FIGS. 14A to 14B illustrate this selectivity towards M2 macrophages.

M2 macrophages [2] = assay: Anti-cell viability screening: reduction of M2 macrophage cell viability (Percentage Relative Cell Viability versus Log Molar Concentration); assay type: cell-based; conditions: for pIC50 / M2 Selectivity: Table 2; for pIC50: read-out: IC50; for IC50: figure legends and text, read-out: IC50, macrophage activity (Percentage Relative Cell Viability versus Log Molar Concentration) (converted)
Method: Assays were conducted in a 96-well black solid-bottom plate with a final assay volume of 100 μL.

[3] = tested on: M2 polarized macrophages with intact CD206 (wild type) versus isogenic M2 polarized macrophages lacking the CD206 receptor; assay: Cell viability in M2 polarized macrophages with intact CD206 versus isogenic macrophages lacking CD206; assay type: cell-based
[4] = Pharmacokinetics (PK) profile, plasma concentration versus time; assay type: in vivo
[5] = molecular target: T1, recombinant human CD206 protein (UniProt ID P22897-1) (Homo sapiens, UniProt P22897); assay: Electron microscopy of recombinant CD206 incubated with compound, particles scored closed versus open; assay type: binding; conditions: 30 minutes at 1 μM
T1 sequence (P22897 19-1456): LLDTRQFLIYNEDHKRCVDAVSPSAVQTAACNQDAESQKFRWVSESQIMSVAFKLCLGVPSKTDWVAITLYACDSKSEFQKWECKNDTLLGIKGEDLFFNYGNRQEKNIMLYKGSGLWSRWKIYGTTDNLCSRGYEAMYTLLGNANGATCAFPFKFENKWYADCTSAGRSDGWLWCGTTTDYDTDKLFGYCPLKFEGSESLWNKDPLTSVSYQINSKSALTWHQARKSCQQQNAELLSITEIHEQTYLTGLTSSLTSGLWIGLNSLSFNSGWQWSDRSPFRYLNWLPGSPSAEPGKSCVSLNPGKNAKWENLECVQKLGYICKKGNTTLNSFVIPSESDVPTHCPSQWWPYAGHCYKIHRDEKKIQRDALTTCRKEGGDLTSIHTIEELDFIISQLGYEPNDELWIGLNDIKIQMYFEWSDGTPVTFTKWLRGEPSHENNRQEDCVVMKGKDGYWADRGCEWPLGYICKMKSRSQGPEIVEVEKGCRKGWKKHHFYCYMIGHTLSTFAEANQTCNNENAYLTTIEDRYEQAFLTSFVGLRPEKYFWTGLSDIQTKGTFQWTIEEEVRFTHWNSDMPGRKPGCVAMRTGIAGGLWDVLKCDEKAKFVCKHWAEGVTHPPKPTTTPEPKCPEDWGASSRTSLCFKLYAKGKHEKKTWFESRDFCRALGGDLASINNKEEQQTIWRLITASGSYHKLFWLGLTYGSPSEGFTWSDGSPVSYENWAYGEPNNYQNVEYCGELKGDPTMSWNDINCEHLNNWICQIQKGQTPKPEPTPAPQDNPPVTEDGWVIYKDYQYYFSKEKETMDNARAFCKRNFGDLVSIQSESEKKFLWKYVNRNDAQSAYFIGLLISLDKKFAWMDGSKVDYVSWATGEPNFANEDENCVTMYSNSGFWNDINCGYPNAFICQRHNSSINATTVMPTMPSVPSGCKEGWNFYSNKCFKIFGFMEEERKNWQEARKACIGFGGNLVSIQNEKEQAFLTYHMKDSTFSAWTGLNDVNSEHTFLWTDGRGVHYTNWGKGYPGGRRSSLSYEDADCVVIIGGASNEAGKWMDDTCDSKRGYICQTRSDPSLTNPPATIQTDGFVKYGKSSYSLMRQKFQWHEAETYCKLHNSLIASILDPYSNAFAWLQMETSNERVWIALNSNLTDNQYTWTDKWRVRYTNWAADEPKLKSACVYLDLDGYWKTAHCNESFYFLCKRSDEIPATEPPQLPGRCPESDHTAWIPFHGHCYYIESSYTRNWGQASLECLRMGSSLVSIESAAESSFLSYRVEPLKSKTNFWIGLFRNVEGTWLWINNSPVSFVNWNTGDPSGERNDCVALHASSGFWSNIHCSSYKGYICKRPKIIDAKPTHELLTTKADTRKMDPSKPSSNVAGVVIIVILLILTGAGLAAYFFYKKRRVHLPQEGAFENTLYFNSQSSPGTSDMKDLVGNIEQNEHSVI
Method: FIGS. 11A and 11B illustrate conformational change on CD206 when incubated with Compound 1.

[6] = tested on: Kras(G12D)/Trp53(R172H)/Pdx-1-Cre (KPC) mice (murine pancreatic cancer model); assay: In vivo testing in transgenic KPC mice, tumor growth; conditions: compared to vehicle
Source text: Tumor growth was suppressed during in vivo testing of Compound 1 in fully immune-competent transgenic Kras(G12D)/Trp53(R172H)/Pdx-1-Cre (KPC) mice (murine pancreatic cancer model) compared to vehicle as shown in FIG. 3B. This point was further illustrated in FIGS. 3A and 3C where comparison of tumor volume for mice treated with Compound-1 and untreated mice (vehicle) is shown.

KPC tumors = assay: Quantitative flow cytometry of autochthonous KPC tumors (intratumoral immune landscape); assay type: in vivo, mice
[7] = tested on: KPC allograft tumors grown in C57BL/6 mice; assay: M2 macrophages adaptive transfer study in KPC allograft model; assay type: in vivo; conditions: intratumoral injections 3 times a week, compared to vehicle
[8] = tested on: murine M1 macrophages and M2 macrophages; assay: Induction of phagocytosis, autophagy and apoptosis in bone marrow derived macrophages (BMDM), M1 versus M2, relative fluorescence; assay type: cell-based
Source text: (§1) Induction of phagocytosis, autophagy, and apoptosis was studied in two in vitro models using M1 and M2 macrophages. […] FIGS. 12A to 12E illustrate this selectivity. […] FIGS. 13A to 13C illustrate this selectivity

[9] = tested on: RAW264.7 macrophages polarized into M1 and M2; assay: Induction of phagocytosis, autophagy and apoptosis in RAW264.7 macrophages polarized into M1 and M2; assay type: cell-based, murine
Source text: as §1

[10] = tested on: human CD206^high M2 macrophages; assay: Cell viability assay of human macrophages; assay type: cell-based; conditions: derived from healthy volunteers, compared to M1-like macrophages
Source text: (§2) Similar selectivity is observed in dendritic cell DC2.4 viability (FIG. 9B), fibroblast HTT viability (FIG. 9C), RAW cell viability (FIG. 9D), and KPC viability (FIG. 9E).

[11] = tested on: CD206 negative control cell lines (DC2.4, fibroblast HTT, non-polarized RAW264.7, KPC cancer cells); assay: Cell viability in a panel of CD206 negative control cell lines; assay type: cell-based
Source text: as §2

murine M2 macrophages = assay: M1 markers in murine M2 macrophages by quantitative flow cytometry; assay type: cell-based; conditions: 20 μM for 2 hours
[12] = CD11b+F4/80+Gr-1 negative cells

In the case of `O=C(NCCCN1CCCC1=O)c1ccc(-c2ncc3cnc(-c4ccccc4)cn23)cc1` [Compound 28, N-(3-(2-oxopyrrolidin-1-yl)propyl)-4-(6-phenylimidazo[1,5-a]pyrazin-3-yl)benzamide], the cancer cell phagocytosis (M2 macrophages [1]) was “increases cancer cell phagocytosis in M2 but not in M1 macrophages”.

For `O=C(NCCc1cnc[nH]1)c1ccc(-c2ncc3cnc(-c4ccccc4)cn23)cc1` [Compound 1, N-(2-(1H-imidazol-5-yl)ethyl)-4-(6-phenylimidazo[1,5-a]pyrazin-3-yl)benzamide], the pIC50 (M2 macrophages [2]; Macrophage) was 5.54, the IC50 (M2 macrophages [2]; Macrophage) was 2.86 µM and the “M2 Selectivity” value (M2 macrophages [2]) was “Yes”. For the same compound, the “CD206 dependence of macrophage activity” value [3] was “CD206 dependent”, the concentration at 0.157 h ([4]; IP (intraperitoneal), 20 mg/kg) was 7.89 µM and the concentration at 0.5 h ([4]; IP (intraperitoneal), 20 mg/kg) was 7.6 µM. The concentration at 1 h ([4]; IP (intraperitoneal), 20 mg/kg) was 11.1 µM, the concentration at 1.5 h ([4]; IP (intraperitoneal), 20 mg/kg) was 12.8 µM and the concentration at 2 h ([4]; IP (intraperitoneal), 20 mg/kg) was 5.84 µM. It also gave a concentration at 4 h ([4]; IP (intraperitoneal), 20 mg/kg) of 3020 nM, a concentration at 7 h ([4]; IP (intraperitoneal), 20 mg/kg, 7.0 h) of 540 nM and a concentration at 0.157 h ([4]; PO (Per Os, oral), 30 mg/kg) of 0.011 µM. It also gave a concentration at 0.5 h ([4]; PO (Per Os, oral), 30 mg/kg) of 0.016 µM, a concentration at 1 h ([4]; PO (Per Os, oral), 30 mg/kg) of 0.023 µM and a concentration at 1.5 h ([4]; PO (Per Os, oral), 30 mg/kg) of 0.19 µM. The concentration at 2 h ([4]; PO (Per Os, oral), 30 mg/kg) was 0.163 µM, the concentration at 4 h ([4]; PO (Per Os, oral), 30 mg/kg) was 11 nM and the PK profile ([4]; liver, and pancreas, oral and IP injection) was “excellent PK profile”. For the same compound, the “CD206 particles in a closed state” value [5] was 48%, the “CD206 particles in open state” value [5] was 52% and the “binding to CD206 and conformation of the receptor” value [5] was “binds to CD206 and induces a conformational switch of the receptor”. The “binding to CD206 and conformation of the receptor” value ([5]; listed as Example 38) was “induces the closed conformation of the CD206 receptor”, the Tumor growth [6] was “suppressed” and the “CD206 positive cells within tumor associated macrophage population” value (KPC tumors; [12]) was “reduction of CD206 positive cells”. For the same compound, the “Signal regulatory protein α (SIRPα) of tumor associated macrophages” value (KPC tumors; [12]) was “reduction of the innate checkpoint Signal regulatory protein α (SIRPα)”, the “CD206 macrophages in tumors (percent positive cell fractions of total cells)” value (KPC tumors; compared to vehicle) was “reduction of CD206 macrophages” and the “M2 to M1 macrophage shift in tumors” value (KPC tumors; compared to vehicle) was “shift from CD206^high M2 to CD86-positive M1 macrophages”. The “intratumoral CD8 cells” value (KPC tumors; compared to vehicle) was “increase in intratumoral CD8 cells”, the “M1 markers in intratumoral M1 and M2 macrophage populations” value (KPC tumors; treatment for three weeks in KPC mice, compared to vehicle) was “induction of M1 markers” and the “Tumor growth after intratumoral injection of pretreated M2 macrophages” value [7] was “reduction of tumor”. The “selectivity to induce phagocytosis, autophagy, and apoptosis” value ([8]; BMDM in vitro model) was “excellent selectivity to induce phagocytosis, autophagy, and apoptosis in M2 but not in M1 macrophages”, the induction of apoptosis ([8]; M1 versus M2) was “induces apoptosis in M2 but not in M1 macrophages” and the induction of autophagy ([8]; M1 versus M2) was “induces autophagy in M2 but not in M1 macrophages”. For the same compound, the “induction of early phagocytosis” value ([8]; M1 versus M2) was “induces early phagocytosis in M2 but not in M1 macrophages”, the induction of phagocytosis ([8]; M1 versus M2) was “induces phagocytosis in M2 but not in M1 macrophages” and the “induction of phagolysosome formation” value ([8]; M1 versus M2) was “induces phagolysosome formation in M2 but not in M1 macrophages”. The “dose response in induction of phagocytosis” value ([8]; murine M2 macrophages treated for 24 hours) was “full dose response”, the “selectivity to induce phagocytosis, autophagy, and apoptosis” value ([9]; RAW264.7 cell in vitro model) was “excellent selectivity to induce phagocytosis, autophagy, and apoptosis in M2 but not in M1 macrophages” and the induction of apoptosis ([9]; compared to vehicle) was “induces apoptosis in M2 macrophages”. For the same compound, the induction of autophagy ([9]; compared to vehicle) was “induces autophagy in M2 macrophages”, the induction of phagocytosis ([9]; compared to vehicle) was “induces phagocytosis in M2 macrophages” and the cancer cell phagocytosis (M2 macrophages [1]) was “increases cancer cell phagocytosis in M2 but not in M1 macrophages”. The “activity in human CD206^high M2 macrophages” value [10] was “active”, the “selectivity versus CD206 negative control cell lines” value [11] was “selective for the CD206^high M2 macrophages” and the “M1 markers (percent positive cell fractions)” value (murine M2 macrophages) was “induction of M1 markers in M2 macrophages”.

Work on `O=C(NCCCO)c1ccc(-c2ncc3cnc(-c4cccc(F)c4)cn23)cc1` [Compound 9, 4-(6-(3-fluorophenyl)imidazo[1,5-a]pyrazin-3-yl)-N-(3-hydroxypropyl)benzamide] yielded an IC50 (M2 macrophages [2]; Macrophage) of 0.73 µM.

Work on `CC(=O)NCCNC(=O)c1ccc(-c2ncc3cnc(-c4cccc(F)c4)cn23)cc1` [Compound 10, N-(2-acetamidoethyl)-4-(6-(3-fluorophenyl)imidazo[1,5-a]pyrazin-3-yl)benzamide] yielded an IC50 (M2 macrophages [2]) of 5.45 µM.

With `NC(=O)c1ccc(-c2ncc3cnc(-c4cccc(F)c4)cn23)cc1` [Compound 8, 4-(6-(3-fluorophenyl)imidazo[1,5-a]pyrazin-3-yl)benzamide] the IC50 (M2 macrophages [2]; Macrophage) was 0.45 µM.

With `O=C(NCCN1CCOCC1)c1ccc(-c2ncc3cnc(-c4ccccc4)cn23)cc1` [Compound 4, N-(2-Morpholinoethyl)-4-(6-phenylimidazo[1,5-a]pyrazin-3-yl)benzamide] the IC50 (M2 macrophages [2]; Macrophage) was 8.95 µM.

With `CC(=O)c1c(C)oc2ccc(N(C(=O)Oc3ccccc3)[S+](=O)(O)c3ccccc3)cc12` [Compound 3] the pIC50 (M2 macrophages [2]; Macrophage) was 5.41, the “M2 Selectivity” value (M2 macrophages [2]) was “Yes” and the “CD206 dependence of macrophage activity” value [3] was “CD206 dependent”.

`CC(=O)Nc1ccc(NC(=O)c2ccc(-c3ncc4cnc(-c5ccccc5)cn34)cc2)cc1` [Compound 5, N-(4-acetamidophenyl)-4-(6-phenylimidazo[1,5-a]pyrazin-3-yl)benzamide] showed an IC50 (M2 macrophages [2]; Macrophage) of 7.36 µM.

Work on `CN(C)CCNC(=O)c1ccc(-c2ncc3cnc(-c4ccccc4)cn23)cc1` [Compound 7, N-(2-(dimethylamino)ethyl)-4-(6-phenylimidazo[1,5-a]pyrazin-3-yl)benzamide] yielded an IC50 (M2 macrophages [2]; Macrophage) of 3.13 µM.

With `O=C(c1cc2ccccc2[nH]1)N1CCc2c(n(Cc3cccnc3)n(CCc3ccccc3)c2=O)C1` [Compound 2] the pIC50 (M2 macrophages [2]; Macrophage) was 5.34, the “M2 Selectivity” value (M2 macrophages [2]) was “Yes” and the “CD206 dependence of macrophage activity” value [3] was “CD206 dependent”. For the same compound, the “M1 markers (percent positive cell fractions)” value (murine M2 macrophages) was “induction of M1 markers in M2 macrophages”.

`O=C(NCCCn1ccnc1)c1ccc(-c2ncc3cnc(-c4ccccc4)cn23)cc1` [Compound 6, N-(3-(1H-imidazol-1-yl)propyl)-4-(6-phenylimidazo[1,5-a]pyrazin-3-yl)benzamide] gave an IC50 (M2 macrophages [2]; Macrophage) of 3.85 µM.
